Legend:
Details in all cases: 10 uM; n=2
PPARγ = PPARγ (Homo sapiens, UniProt P37231)
PROSTAGLANDIN F REC. = PROSTAGLANDIN F REC. (Homo sapiens, UniProt P43088)
[…]. M1 = […]. M1 (Homo sapiens, UniProt P11229)
α2A-ADRENOCEPTOR = α2A-ADRENOCEPTOR (Homo sapiens, UniProt P08913)
Chain of UniProt P08913 (P08913 whole entry): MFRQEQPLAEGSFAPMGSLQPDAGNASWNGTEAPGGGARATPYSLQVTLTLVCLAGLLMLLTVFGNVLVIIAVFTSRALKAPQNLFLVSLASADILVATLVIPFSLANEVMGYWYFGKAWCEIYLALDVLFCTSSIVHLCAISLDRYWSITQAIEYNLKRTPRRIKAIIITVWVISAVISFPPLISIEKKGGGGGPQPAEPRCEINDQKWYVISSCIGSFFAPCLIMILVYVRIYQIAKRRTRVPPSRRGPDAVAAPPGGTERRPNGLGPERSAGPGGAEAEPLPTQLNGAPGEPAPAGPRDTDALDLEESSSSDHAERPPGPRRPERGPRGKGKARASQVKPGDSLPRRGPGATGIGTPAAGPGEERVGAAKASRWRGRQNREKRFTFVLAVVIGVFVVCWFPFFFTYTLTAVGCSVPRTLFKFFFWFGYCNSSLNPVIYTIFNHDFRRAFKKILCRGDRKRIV

Chain of […]. M1 (P11229 whole entry): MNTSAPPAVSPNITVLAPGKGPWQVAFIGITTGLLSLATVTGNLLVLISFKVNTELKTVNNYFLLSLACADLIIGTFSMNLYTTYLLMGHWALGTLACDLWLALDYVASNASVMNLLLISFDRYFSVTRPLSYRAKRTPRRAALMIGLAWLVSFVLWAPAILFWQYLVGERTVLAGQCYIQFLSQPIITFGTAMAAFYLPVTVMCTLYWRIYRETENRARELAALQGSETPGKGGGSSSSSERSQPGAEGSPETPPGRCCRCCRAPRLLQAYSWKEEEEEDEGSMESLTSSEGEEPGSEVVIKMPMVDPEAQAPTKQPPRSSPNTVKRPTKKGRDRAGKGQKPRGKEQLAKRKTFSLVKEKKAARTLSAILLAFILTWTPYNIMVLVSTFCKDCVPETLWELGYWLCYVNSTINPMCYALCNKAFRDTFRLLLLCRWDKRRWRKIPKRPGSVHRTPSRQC
Chain of UniProt P43088 (P43088 whole entry): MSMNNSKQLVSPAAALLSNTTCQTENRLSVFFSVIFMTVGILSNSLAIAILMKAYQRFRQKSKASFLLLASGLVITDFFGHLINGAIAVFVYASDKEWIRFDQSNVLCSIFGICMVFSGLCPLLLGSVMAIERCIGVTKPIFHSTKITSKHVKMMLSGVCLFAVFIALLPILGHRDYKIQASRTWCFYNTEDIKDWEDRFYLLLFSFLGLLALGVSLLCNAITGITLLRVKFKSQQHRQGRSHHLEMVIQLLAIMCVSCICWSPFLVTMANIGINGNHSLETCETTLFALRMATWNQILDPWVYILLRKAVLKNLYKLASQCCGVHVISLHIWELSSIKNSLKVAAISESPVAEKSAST
Chain of PPARγ (P37231 whole entry): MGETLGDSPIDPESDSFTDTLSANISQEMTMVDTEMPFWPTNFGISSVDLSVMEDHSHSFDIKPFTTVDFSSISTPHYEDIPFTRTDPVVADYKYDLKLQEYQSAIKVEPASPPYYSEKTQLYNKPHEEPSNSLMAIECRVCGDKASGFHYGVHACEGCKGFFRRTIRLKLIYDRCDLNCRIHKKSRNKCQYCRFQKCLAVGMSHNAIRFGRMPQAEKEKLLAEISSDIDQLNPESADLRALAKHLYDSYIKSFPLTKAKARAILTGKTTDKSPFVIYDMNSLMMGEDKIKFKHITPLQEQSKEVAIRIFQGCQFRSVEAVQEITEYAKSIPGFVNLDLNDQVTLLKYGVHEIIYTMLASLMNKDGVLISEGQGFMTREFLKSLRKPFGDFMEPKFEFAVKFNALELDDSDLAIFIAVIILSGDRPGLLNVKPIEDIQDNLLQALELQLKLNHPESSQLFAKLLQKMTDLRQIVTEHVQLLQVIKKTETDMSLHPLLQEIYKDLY

## O=C(c1ccc2nc(-c3cnccc3C3(C4CCC4)CC3)oc2c1)N1CCN(c2nc3nc(Cl)ccc3o2)CC1 [Compound 27]
PPARγ
  PPARγ percent activity or inhibition compared to the assay reference: 9%
PROSTAGLANDIN F REC.
  PROSTAGLANDIN F REC. percent activity or inhibition compared to the assay reference: 0%
[…]. M1
  […]. M1 percent activity or inhibition compared to the assay reference: 52%
α2A-ADRENOCEPTOR
  α2A-ADRENOCEPTOR percent activity or inhibition compared to the assay reference: 0%

Reference: article PMC12749626, “Expediting hit-to-lead progression in drug discovery through reaction prediction and multi-dimensional optimization” (Nature Communications, 2025)
